According to US12318381B2, “Treatment for non-alcoholic fatty liver disease” (1GLOBE BIOMEDICAL CO., LTD., priority 2018, dated 2025):

Test system: human HepG2 liver cells
Experiment: Intracellular fat content in palmitoleic acid-treated HepG2 cells (AdipoRed/Hoechst 33258 double staining, fluorometry)
Assay type: cell-based
Conditions: for palmitoleic acid-induced increase of intracellular triglyceride content: HepG2, 0.8 mM palmitoleic acid in EMEM; for inhibitory effect on fat accumulation as compared to Compound 13-3: HepG2, 0.8 mM palmitoleic acid
Experimental: The effects on triglyceride accumulation from Compound 13-3-1, Compound 13-3-2, Compound 13-3-3, Compound 13-3-5, Compound 13-3-6, Compound 13-3-7, Compound 18-2, Compound 13-3-10 and Compound 13-3-11, as exemplary compounds of the invention, were tested. Human HepG2 liver cells were incubated with 0.8 mM palmitoleic acid in EMEM medium for 24 hours in the presence of 0.1 μM compounds of the invention or control vehicle, DMSO. Subsequently, the cells were washed with PBS and the intracellular fat content was measured by AdipoRed/Hoechst 33258 double staining, which was assessed by flourometry.
And the effects of Compound 001, Compound 004, Compound 006, Compound 013, Compound 132, Compound 133 and Compound 134, as further exemplary compounds of the invention, were also tested. Human HepG2 liver cells were incubated with 0.8 mM palmitoleic acid in EMEM medium for 48 hours in the presence of 0.1 μM compounds of the invention or control vehicle, DMSO. Subsequently, the cells were washed with PBS and the intracellular fat content was measured by AdipoRed/Hoechst 33258 double staining, which was assessed by flourometry.

[1] = 48 hours, 0.1 μM compound vs DMSO (FIG. 1C)
[2] = 24 hours, 0.1 μM compound vs DMSO (FIG. 1B)

`[2H]C([2H])(NC(=O)c1c(C)[nH]c(/C=C2\C(=O)Nc3ccc(-c4csc(-c5ccccc5)n4)cc32)c1C)C([2H])([2H])N(CC)CC` [Compound 001] was tested, and the “palmitoleic acid-induced increase of intracellular triglyceride content” value (shortened to “palmitoleic acid-induced increase”) [1] was “markedly suppressed” and the “inhibitory effect on fat accumulation as compared to Compound 13-3” value (“inhibitory effect … compared to Compound 13-3” below) (48 hours, 0.1 μM (FIG. 1C)) was “comparable or greater”.

With `[2H]C([2H])([2H])C([2H])([2H])N(C([2H])([2H])C([2H])([2H])[2H])C([2H])([2H])C([2H])([2H])NC(=O)c1c(C)[nH]c(/C=C2\C(=O)Nc3ccc(-c4csc(-c5ccccc5)n4)cc32)c1C` [Compound 004] the “palmitoleic acid-induced increase” value [1] was “markedly suppressed” and the “inhibitory effect … compared to Compound 13-3” value (48 hours, 0.1 μM (FIG. 1C)) was “comparable or greater”.

`[2H]c1c([2H])c([2H])c(-c2nc(-c3ccc4c(c3)/C(=C/c3[nH]c(C)c(C(=O)NC([2H])([2H])C([2H])([2H])N(C([2H])([2H])C([2H])([2H])[2H])C([2H])([2H])C([2H])([2H])[2H])c3C)C(=O)N4)cs2)c([2H])c1[2H]` [Compound 006] was tested, and the “palmitoleic acid-induced increase” value [1] was “markedly suppressed” and the “inhibitory effect … compared to Compound 13-3” value (48 hours, 0.1 μM (FIG. 1C)) was “comparable or greater”.

For `CCN(CC)CCNC(=O)c1c(C)[nH]c(/C=C2\C(=O)Nc3ccc(-c4csc(Nc5ccccc5)n4)cc32)c1C` [Compound 13-3-1], the “palmitoleic acid-induced increase” value [2] was “markedly suppressed” and the “inhibitory effect … compared to Compound 13-3” value (24 hours, 0.1 μM (FIG. 1B)) was “comparable or greater”.

In the case of `CCN(CC)CCNC(=O)c1c(C)[nH]c(/C=C2\C(=O)Nc3ccc(-c4csc(N5CCCCC5)n4)cc32)c1C` [Compound 13-3-2], the “palmitoleic acid-induced increase” value [2] is reported as “markedly suppressed” and the “inhibitory effect … compared to Compound 13-3” value (24 hours, 0.1 μM (FIG. 1B)) is reported as “comparable or greater”.

In the case of `CCN(CC)CCNC(=O)c1c(C)[nH]c(/C=C2\C(=O)Nc3ccc(C(=O)Nc4csc([N+](=O)[O-])n4)cc32)c1C` [Compound 13-3-3], the “palmitoleic acid-induced increase” value [2] is reported as “markedly suppressed” and the “inhibitory effect … compared to Compound 13-3” value (24 hours, 0.1 μM (FIG. 1B)) is reported as “comparable or greater”.

For `CCN(CC)CCNC(=O)c1c(C)[nH]c(/C=C2\C(=O)Nc3cccc(-c4cnc(OC)nc4)c32)c1C` [Compound 13-3-5], the “palmitoleic acid-induced increase” value [2] was “markedly suppressed” and the “inhibitory effect … compared to Compound 13-3” value (24 hours, 0.1 μM (FIG. 1B)) was “comparable or greater”.

`CCN(CC)CCC(=O)N1CCN(c2ccc(/C=C3\C(=O)Nc4ccc(-c5csc(-c6ccccc6)n5)cc43)cc2)CC1` [Compound 13-3-6] was tested, and the “palmitoleic acid-induced increase” value [2] was “markedly suppressed” and the “inhibitory effect … compared to Compound 13-3” value (24 hours, 0.1 μM (FIG. 1B)) was “comparable or greater”.

With `CCN(CC)CCNC(=O)CCc1c(C)[nH]c(/C=C2\C(=O)Nc3ccc(-c4csc(-c5ccccc5)n4)cc32)c1C` [Compound 13-3-7] the “palmitoleic acid-induced increase” value [2] was “markedly suppressed” and the “inhibitory effect … compared to Compound 13-3” value (24 hours, 0.1 μM (FIG. 1B)) was “comparable or greater”.

For `CCN(CC)CCNC(=O)c1c(C)[nH]c(/C=C2\C(=O)Nc3cnc(-c4csc(-c5ccccc5)n4)cc32)c1C` [Compound 13-3-10], the “palmitoleic acid-induced increase” value [2] was “markedly suppressed” and the “inhibitory effect … compared to Compound 13-3” value (24 hours, 0.1 μM (FIG. 1B)) was “comparable or greater”.

For `CCN(CC)CCNC(=O)c1c(C)[nH]c(/C=C2\C(=O)Nc3ccc(C4CCN(c5ccccc5)CC4)cc32)c1C` [Compound 13-3-11], the “palmitoleic acid-induced increase” value [2] was “markedly suppressed” and the “inhibitory effect … compared to Compound 13-3” value (24 hours, 0.1 μM (FIG. 1B)) was “comparable or greater”.

`[2H]c1c([2H])c([2H])c(-c2nc(-c3ccc4c(c3)/C(=C/c3[nH]c(C)c(C(=O)NC([2H])([2H])C([2H])([2H])N(CC)CC)c3C)C(=O)N4)cs2)c([2H])c1[2H]` [Compound 013] was tested, and the “palmitoleic acid-induced increase” value [1] was “markedly suppressed” and the “inhibitory effect … compared to Compound 13-3” value (48 hours, 0.1 μM (FIG. 1C)) was “comparable or greater”.

For `Cc1[nH]c(/C=C2\C(=O)Nc3ccc(-c4csc(-c5cccnc5)n4)cc32)c(C)c1C(=O)N1CCN(C)CC1` [Compound 18-2], the “palmitoleic acid-induced increase” value [2] was “markedly suppressed” and the “inhibitory effect … compared to Compound 13-3” value (24 hours, 0.1 μM (FIG. 1B)) was “comparable or greater”.

`[2H]c1c([2H])c([2H])c(-c2nc(-c3ccc4c(c3)/C(=C/c3[nH]c(C)c(C(=O)NCCN(CC)CC)c3C)C(=O)N4)cs2)c([2H])c1[2H]` [Compound 132] was tested, and the “palmitoleic acid-induced increase” value [1] was “markedly suppressed” and the “inhibitory effect … compared to Compound 13-3” value (48 hours, 0.1 μM (FIG. 1C)) was “comparable or greater”.

For `[2H]c1c([2H])c([2H])c(-c2nc(-c3ccc4c(c3)/C(=C/c3[nH]c(C)c(C(=O)NCCN(C([2H])([2H])C([2H])([2H])[2H])C([2H])([2H])C([2H])([2H])[2H])c3C)C(=O)N4)cs2)c([2H])c1[2H]` [Compound 133], the “palmitoleic acid-induced increase” value [1] was “markedly suppressed” and the “inhibitory effect … compared to Compound 13-3” value (48 hours, 0.1 μM (FIG. 1C)) was “comparable or greater”.

`[2H]C([2H])([2H])C([2H])([2H])N(CCNC(=O)c1c(C)[nH]c(/C=C2\C(=O)Nc3ccc(-c4csc(-c5ccccc5)n4)cc32)c1C)C([2H])([2H])C([2H])([2H])[2H]` [Compound 134] was tested, and the “palmitoleic acid-induced increase” value [1] was “markedly suppressed” and the “inhibitory effect … compared to Compound 13-3” value (48 hours, 0.1 μM (FIG. 1C)) was “comparable or greater”.
